According to US6458781B1, “Substituted diarylalkyl amides as calcium channel antagonists” (priority 1998, dated 2002):
Where a name gives a salt, the structure may show the parent alone. Read-outs that look alike come from different tables or passages of the source.

How the values were obtained:
[1] = molecular target: T1, N-type calcium channels in IMR-32 cells (Homo sapiens, UniProt Q00975); assay: N-type Ca2+ channel blocking potency in IMR-32 cells using Indo-1; assay type: cell-based; settings: for IC50: IMR-32 cells; for inhibition at 1 µM / inhibition at 10 µM: IMR-32, IMR-32 cells; for inhibition at 1 µM: read-out: IMR32 % blockage at 1 μM; for inhibition at 10 µM: read-out: IMR32 % blockage at 10 μM
T1 construct: host or cells: IMR-32 cells differentiated with dibutyryl cAMP and bromodeoxyuridine
Method in brief: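 Differentiated IMR-32 cells loaded with Indo-1 AM were preincubated with compound and 5 μM nitrendipine (L-type block) for 10 min at 30° C in HEPES/Tris pH 7.4 HBSS with 0.5% BSA. Cells were depolarized with KCl/CaCl2, and the 400/490 nm emission ratio rise over basal was measured. IC50 came from a four-parameter logistic fit.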

[2] = test system: sound-induced tonic convulsions in DBA/2 mice; assay: Audiogenic seizure model in DBA/2 mice; assay type: in vivo; settings: Mus musculus, protected/tested, read-out: Number of Mice Protected From Tonic Convulsions (converted); for responders at 30 mg/kg: 30 mg/Kg IV; for responders at 10 mg/kg: 10 mg/Kg IV
Description: Audiogenic Seizure Model in DBA/2 Mice
A compound of the present invention was dissolved in water using 10% (weight/volume) Emulphor (GAF Corp., Wayne, N.J.) surfactant. Substances were administered by intravenous injection into the retro-orbital venous sinus of male mice (3-4 weeks old, Jackson Laboratories, Bar Harbour, Me.). All testing was preformed 15 minutes or 45 minutes after drug injection. Immediately before anticonvulsant testing, mice were placed upon a wire mesh, 4 inches square suspended from a steel rod. The square was slowly inverted through 180 degrees and mice observed for 30 seconds. Any mouse falling from the wire mesh was scored as ataxic.
Mice were placed into an enclosed acrylic plastic chamber (21 cm height, approximately 30 cm diameter) with a high-frequency speaker (4 cm diameter) in the center of the top lid. An audio signal generator (Protek model B-810) was used to produce a continuous sinusoidal tone that Was swept linearly in frequency between 8 kHz and 16 kHz once each 10 msec. The average sound pressure level (SPL) during stimulation was approximately 100 dB at the floor of the chamber. Mice were placed within the chamber and allowed to acclimatize for 1 minute. DBA/2 mice in the vehicle-treated group responded to the sound stimulus (applied until tonic extension occurred, or for a maximum of 60 sec) with a characteristic seizure sequence consisting of wild running followed by clonic seizures, and later by tonic extension, and finally by respiratory arrest and death in 80% or more of the mice. In vehicle-treated mice, the entire sequence of seizures to respiratory arrest lasts approximately 15-20 seconds.
The incidence of all the seizure phases in the drug-treated and vehicle-treated mice was recorded, and the occurrence of tonic seizures were used for calculating anticonvulsant ED50 values by probit analysis. Mice were used only once for testing at each time and dose point.

[3] = molecular target: T2, N-type Ca2+ channels in cultured superior cervical ganglion (SCG) neurons (Rattus norvegicus, UniProt Q02294); assay: Calcium current in superior cervical ganglion neurons (whole-cell voltage clamp); assay type: cell-based; settings: for inhibition at 1 µM: read-out: SCG Ca, % blockage at 1 μM; for inhibition at 10 µM: read-out: SCG Ca, % blockage at 10 μM
T2 construct: from tissue
Description: (§1) Electrophysiological techniques were used to measure the effects of experimental compounds on voltage-gated Ca^2+, […] , and K^+ channels. […] Sodium and potassium channel currents were measured from acutely dissociated SCG neurons.
(§2) Dissociation of the neurons from the ganglia was accomplished using a 30 to 45 minute treatment in 0.25% trypsin, similar to methods outlined in Higgins, et al. (see Higgins D. et al. “Tissue culture of mammalian autonomic neurons.” In Banker G. and Goslin K. (Eds), Culturing Nerve Cells, Cambridge, Mass., MIT Press [1991]).
(§3) Ca^2+, Na^+, and K^+ channel currents in SCG neurons were measured using conventional single electrode whole-cell voltage-clamp techniques, outlined in Hamill et al., (see Hamill O. P. et al. “Improved patch-clamp techniques for high resolution current recordings from cells and cell-free membrane patches.”Pflugers Arch., 1981;391:85-100). For Ca^2+ channel experiments, the external bathing solution contained tetraethylammonium chloride (100 mM), choline chloride (52 mM), NaCl (15 mM), HEPES (10 mM), glucose (5.6 mM), CaCl2 (2 mM), and MgCl2 (0.8 mM), pH 7.35 with KOH; with the internal pipette solution containing cesium methane sulfonate (140 mM), EGTA (10 mM), and HEPES (10 mM), supplemented with 5 mM Mg^2+-ATP on the day of the experiment, pH 7.4 with CsOH. For Na^+ and K^+ channel experiments, the external bathing solution contained NaCl (150 mM), KCl (5 mM), MgCl2 (1.1 mM), CaCl2 (2.6 mM), Na-HEPES (10 mM), and glucose (10 mM), pH 7.4; with the internal pipette solution containing KCl (80 mM), K-gluconate (50 mM), HEPES (10 mM), and EGTA (10 mM), pH 7.4 with KOH. Experimental compounds were diluted into the external solution and applied to the soma of cells by local perfusion from large diameter (20-50 μm) glass micropipettes or from a U-tube applicator.
After obtaining a whole-cell recording, Ca^2+ channels were elicited by stepping to test potentials between −40 and +20 mV for 120 msec from the holding potential of −90 mV to determine if the amplitude of the current and clamp control were adequate for evaluation of drug effects. Ca^2+ channel currents were evoked by stepping from a holding potentials between −65 mV and −55 mV to a test potential of +20 mV for 150 msec every 40 seconds. The amplitude of the Ca^2+ channel currents were compared before and during drug application and drug effects expressed as percent inhibition of the amplitude of control currents.

[4] = test system: K+ channels in SCG neurons; assay: Potassium current in superior cervical ganglion neurons (whole-cell voltage clamp); assay type: cell-based, rat
Description: as §1, §2, §3
(§4) For Na^+ and K^+ channel currents, following the determination of the I/V relationship for each cell in control solution, currents were evoked from a holding potential between −65 and −55 mV by stepping every 10 sec to a test potential of either 0 mV for Na^+ or +50 mV for K^+ current for a duration of 35 msec. Peak inward current was measured for Na^+ and sustained current for K^+ channel currents. […] Test compounds were applied until steady-state block was achieved. Data were expressed as percent inhibition of control amplitudes for Na^+ and K^+ channel currents.

[5] = test system: Na+ channels in SCG neurons; assay: Sodium current in superior cervical ganglion neurons (whole-cell voltage clamp); assay type: cell-based, rat; settings: at 10 μM
Description: as §1, §2, §3, §4

[6] = test system: electroshock-induced tonic extensor seizures in CF-1 mice; assay: Maximal electroshock testing; assay type: in vivo; settings: protected/tested
Description: Maximal Electroshock Testing
In this test, four representative compounds were tested for their anticonvulsant effects using the procedure described below.
Male CF-1 mice, 20 to 28 g, from Charles River Laboratories, Portage, Mich. were used in all experiments. Groups of 10 mice each were given various intravenous doses of test compound in aqueous solution with 10% Emulphan® Surfactant in a volume of 10 mL/kg of body weight. Electroshock was delivered by corneal electrodes with 60 Hz alternating current (50 mA root-mean-squared for 0.2 seconds) using a constant-current stimulator (Wahlquist Instruments, Salt Lake City, Utah). Untreated or saline-treated mice reliably had tonic extensor seizures with rearward extension of hindlimbs more than 3 seconds. These methods are similar to those published by Krall R. L.; Penry J. K.; White B. G.; and Kupferberg H. K. Antiepileptic Drug Development II. Anticonvulsant Drug Screening, Epilepsia, 1978; 19:409-428.

[7] = molecular target: T3, L-type calcium channels in A10 cells (Rattus norvegicus, UniProt P22002); assay: L-type Ca2+ channel blocking potency in A10 cells (FLIPR); assay type: cell-based; settings: read-out: FLPA10 IC50
T3 construct: which endogenously expresses L-type calcium channels; host or cells: A10 rat embryonic thoracic aorta smooth muscle cells
T3 sequence (P22002 whole entry): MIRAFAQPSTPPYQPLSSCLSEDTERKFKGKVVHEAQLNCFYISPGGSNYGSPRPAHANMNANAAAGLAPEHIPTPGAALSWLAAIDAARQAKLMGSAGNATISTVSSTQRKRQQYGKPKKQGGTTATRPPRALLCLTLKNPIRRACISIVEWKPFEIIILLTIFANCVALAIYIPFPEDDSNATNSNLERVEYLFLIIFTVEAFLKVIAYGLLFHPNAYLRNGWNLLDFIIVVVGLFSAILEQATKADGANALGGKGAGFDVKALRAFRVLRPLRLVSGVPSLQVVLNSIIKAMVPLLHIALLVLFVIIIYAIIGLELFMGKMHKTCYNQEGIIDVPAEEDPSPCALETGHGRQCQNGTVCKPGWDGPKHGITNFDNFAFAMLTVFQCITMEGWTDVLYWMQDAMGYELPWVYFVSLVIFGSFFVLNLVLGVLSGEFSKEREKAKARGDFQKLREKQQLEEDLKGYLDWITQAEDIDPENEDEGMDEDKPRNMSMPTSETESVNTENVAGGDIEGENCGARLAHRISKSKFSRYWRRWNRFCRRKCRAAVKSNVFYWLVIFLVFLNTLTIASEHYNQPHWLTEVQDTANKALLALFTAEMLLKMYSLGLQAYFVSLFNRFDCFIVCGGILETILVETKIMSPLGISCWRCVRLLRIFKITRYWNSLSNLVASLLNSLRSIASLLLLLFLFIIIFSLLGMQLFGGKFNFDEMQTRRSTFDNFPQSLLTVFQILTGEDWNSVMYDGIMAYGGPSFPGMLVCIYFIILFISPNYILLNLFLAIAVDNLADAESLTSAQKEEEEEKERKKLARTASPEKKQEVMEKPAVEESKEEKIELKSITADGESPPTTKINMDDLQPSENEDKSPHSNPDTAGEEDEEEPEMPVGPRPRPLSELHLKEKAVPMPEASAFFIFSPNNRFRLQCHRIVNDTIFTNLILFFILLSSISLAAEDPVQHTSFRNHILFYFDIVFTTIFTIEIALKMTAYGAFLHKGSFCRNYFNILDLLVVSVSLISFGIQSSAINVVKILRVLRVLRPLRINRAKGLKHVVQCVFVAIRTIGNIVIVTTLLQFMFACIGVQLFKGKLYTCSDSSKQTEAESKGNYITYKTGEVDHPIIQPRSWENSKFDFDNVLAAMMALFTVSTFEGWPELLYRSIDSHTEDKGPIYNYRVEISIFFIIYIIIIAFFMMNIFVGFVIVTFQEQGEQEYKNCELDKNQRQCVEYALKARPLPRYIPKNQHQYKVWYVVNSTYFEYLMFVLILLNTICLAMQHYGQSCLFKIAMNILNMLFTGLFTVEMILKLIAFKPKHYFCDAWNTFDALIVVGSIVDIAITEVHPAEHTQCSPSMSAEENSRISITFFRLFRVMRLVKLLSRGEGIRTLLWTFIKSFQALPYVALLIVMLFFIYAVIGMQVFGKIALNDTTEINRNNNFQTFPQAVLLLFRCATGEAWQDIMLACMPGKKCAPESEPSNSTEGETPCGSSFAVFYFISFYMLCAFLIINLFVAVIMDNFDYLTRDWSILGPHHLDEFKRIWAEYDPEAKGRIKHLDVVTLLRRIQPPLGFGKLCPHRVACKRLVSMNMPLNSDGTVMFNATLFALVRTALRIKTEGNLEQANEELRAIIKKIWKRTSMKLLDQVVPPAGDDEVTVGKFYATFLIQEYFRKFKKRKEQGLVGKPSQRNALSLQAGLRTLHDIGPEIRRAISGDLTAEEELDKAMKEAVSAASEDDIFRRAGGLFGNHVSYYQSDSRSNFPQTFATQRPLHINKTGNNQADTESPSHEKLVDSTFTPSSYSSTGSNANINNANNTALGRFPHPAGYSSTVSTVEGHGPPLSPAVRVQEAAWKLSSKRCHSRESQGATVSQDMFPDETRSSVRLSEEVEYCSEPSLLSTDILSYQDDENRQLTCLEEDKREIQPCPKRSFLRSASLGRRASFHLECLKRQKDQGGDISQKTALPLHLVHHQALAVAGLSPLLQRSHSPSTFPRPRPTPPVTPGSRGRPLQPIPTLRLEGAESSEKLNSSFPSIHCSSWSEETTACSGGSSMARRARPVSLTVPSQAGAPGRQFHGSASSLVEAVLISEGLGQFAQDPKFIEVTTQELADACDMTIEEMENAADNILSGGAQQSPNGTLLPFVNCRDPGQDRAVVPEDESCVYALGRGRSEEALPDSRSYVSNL
T3 sequence (P54290 25-944 partner limits assumed): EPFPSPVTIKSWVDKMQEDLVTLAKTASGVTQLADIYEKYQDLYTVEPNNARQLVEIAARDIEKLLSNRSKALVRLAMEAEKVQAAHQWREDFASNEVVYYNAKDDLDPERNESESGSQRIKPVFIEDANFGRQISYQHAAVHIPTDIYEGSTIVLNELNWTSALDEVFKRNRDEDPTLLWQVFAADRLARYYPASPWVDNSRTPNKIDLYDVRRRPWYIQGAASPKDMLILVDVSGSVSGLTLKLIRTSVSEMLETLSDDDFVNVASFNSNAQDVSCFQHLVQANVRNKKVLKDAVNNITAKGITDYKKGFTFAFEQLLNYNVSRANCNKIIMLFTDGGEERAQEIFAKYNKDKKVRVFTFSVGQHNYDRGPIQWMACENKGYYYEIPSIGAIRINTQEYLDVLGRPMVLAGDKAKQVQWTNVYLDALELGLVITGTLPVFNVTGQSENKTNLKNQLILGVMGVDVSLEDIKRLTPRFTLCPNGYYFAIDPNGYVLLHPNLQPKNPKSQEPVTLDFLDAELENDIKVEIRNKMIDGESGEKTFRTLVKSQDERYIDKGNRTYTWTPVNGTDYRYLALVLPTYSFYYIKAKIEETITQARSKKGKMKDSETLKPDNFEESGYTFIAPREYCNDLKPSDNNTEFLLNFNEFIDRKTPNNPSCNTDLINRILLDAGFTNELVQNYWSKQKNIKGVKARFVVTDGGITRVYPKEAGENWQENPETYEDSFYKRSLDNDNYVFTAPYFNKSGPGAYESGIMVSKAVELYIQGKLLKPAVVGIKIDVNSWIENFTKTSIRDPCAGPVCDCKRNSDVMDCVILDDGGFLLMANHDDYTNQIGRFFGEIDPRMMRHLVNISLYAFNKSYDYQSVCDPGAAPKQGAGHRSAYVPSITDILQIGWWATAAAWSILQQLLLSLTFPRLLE
T3 sequence (P54290 945-1091 partner limits assumed): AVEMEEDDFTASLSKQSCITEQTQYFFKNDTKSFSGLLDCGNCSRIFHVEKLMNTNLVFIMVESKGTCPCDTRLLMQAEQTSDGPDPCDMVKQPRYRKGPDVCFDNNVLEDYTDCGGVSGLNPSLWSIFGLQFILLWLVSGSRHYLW
T3 sequence (P54287 whole entry partner): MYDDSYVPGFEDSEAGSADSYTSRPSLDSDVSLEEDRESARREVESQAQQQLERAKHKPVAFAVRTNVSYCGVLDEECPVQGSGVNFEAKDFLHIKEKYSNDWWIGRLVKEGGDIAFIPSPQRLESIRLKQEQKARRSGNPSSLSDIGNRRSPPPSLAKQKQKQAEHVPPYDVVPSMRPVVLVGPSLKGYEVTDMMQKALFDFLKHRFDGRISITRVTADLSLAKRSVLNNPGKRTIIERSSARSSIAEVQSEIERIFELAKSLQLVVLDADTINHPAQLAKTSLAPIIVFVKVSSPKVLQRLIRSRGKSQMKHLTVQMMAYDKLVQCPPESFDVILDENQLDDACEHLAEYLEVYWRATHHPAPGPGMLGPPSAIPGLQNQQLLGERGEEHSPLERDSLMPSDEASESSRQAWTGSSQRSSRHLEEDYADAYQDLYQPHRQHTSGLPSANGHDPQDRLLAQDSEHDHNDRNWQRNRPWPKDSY
Method in brief: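 Rat A10 aortic smooth-muscle cells endogenously expressing L-type channels were loaded with Oregon Green BAPTA-1 and preincubated with compound for 5 min at 35 °C. Cells were then depolarized with 140 mM KCl buffer. Summed fluorescence above basal over 120 s gave % inhibition versus buffer-treated stimulated wells, with zero influx defined by 1.0×10^−6 M nitrendipine.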

[8] = 5 μM nitrendipine present, read-out: IMR32 IC50
[9] = 10 mg/Kg iv, 15 min posttreatment
[10] = estimated from two data points, read-out: IMR32 IC50 (estimated IC50 values based on two data points)

| IC50 [1, 8] | inhibition at 10 µM [3] | IC50 [1, 10] | IC50 [7] | SMILES | responders at 30 mg/kg ([2]; 0.25 h, 15 min posttreatment) | SCG K, % blockage at 10 μM [4] | SCG Na, % blockage at 10 μM [5] | responders at 30 mg/kg ([2]; 0.75 h, 45 min posttreatment) | other results |
| --- | --- | --- | --- | --- | --- | --- | --- | --- | --- |
| 0.82 µM | 16% |  |  | CC(C)C[C@H](NC(=O)N1CCCCCC1)C(=O)NCCCC(c1ccc(F)cc1)c1ccc(F)cc1 [Example 1, (S)-Azepane-1-carboxylic acid {1-[4,4-bis-(4-fluoro-phenyl)-butylcarbamoyl]-3-methyl-butyl}-amide] | 60% | 3% @ 10 | 14% @ 10 |  | inhibition at 1 µM [3]: 17%; SCG K, % blockage at 1 μM [4]: 4.3% @ 1 |
|  |  | 1.2 µM | 0.61 µM | CC(C)C[C@H](NC1CCCCC1)C(=O)N1CCN(C(c2ccc(F)cc2)c2ccc(F)cc2)CC1 [Example 38, (S)-1-{4-[Bis-(4-fluoro-phenyl)-methyl]-piperazin-1-yl}-2-cyclohexylamino-4-methyl-pentan-1-one] | 80% |  |  | 20% |  |
|  |  | 0.7 µM | 0.5 µM | CC(C)C[C@@H](C(=O)N1CCN(C(c2ccc(F)cc2)c2ccc(F)cc2)CC1)N(C)C1CCCCC1 [Example 40, (S)-1-{4-[Bis-(4-fluoro-phenyl)-methyl]-piperazin-1-yl}-2-(cyclohexyl-methyl-amino)-4-methyl-pentan-1-one] | 0% |  |  | 0% |  |
|  |  | 0.33 µM | 1.8 µM | CC(C)CCN(C)[C@@H](CC(C)C)C(=O)N1CCN(C(c2ccc(F)cc2)c2ccc(F)cc2)CC1 [Example 46, 1-{4-[Bis-(4-fluoro-phenyl)-methyl]-piperazin-1-yl}-4-methyl-2-[methyl-(3-methyl-butyl)-amino]-pentan-1-one dihydrochloride] |  |  |  |  | responders at 10 mg/kg ([2]; 0.25 h, 15 min posttreatment): 80%; responders at 10 mg/kg ([2]; 0.75 h, 45 min posttreatment): 20% |
|  |  |  | 0.43 µM | N[C@@H](Cc1ccccc1)C(=O)N1CCN(C(c2ccc(F)cc2)c2ccc(F)cc2)CC1 [Example 52, (S)-2-Amino-1-(4-[bis-(4-fluoro-phenyl)-methyl]-piperazin-1-yl}-3-phenyl-propan-1-one] | 100% |  |  | 80% | inhibition at 1 µM [1]: 23%; inhibition at 10 µM [1]: 99% |

Continued, compound first:

| SMILES | IC50 [1, 8] | inhibition at 10 µM [3] | IC50 [1, 10] | IC50 [7] | responders at 30 mg/kg ([2]; 0.25 h, 15 min posttreatment) | SCG K, % blockage at 10 μM [4] | SCG Na, % blockage at 10 μM [5] | responders at 30 mg/kg ([2]; 0.75 h, 45 min posttreatment) | other results |
| --- | --- | --- | --- | --- | --- | --- | --- | --- | --- |
| CC(C)C[C@H](NC(=O)N1CCCCCC1)C(=O)NC(c1ccccc1)c1ccccc1 [Example 3, (S)-Azepane-1-carboxylic acid [1-(benzhydryl-carbamoyl)-3-methyl-butyl]-amide] | 4.4 µM | 33% |  |  |  | 48% @ 10 | 5% @ 10 |  | melting point: 180 to 181 °C |
| CC(C)=CCN(C)[C@@H](CC(C)C)C(=O)NCCCC(c1ccc(F)cc1)c1ccc(F)cc1 [Example 13, (S)-4-Methyl-2-[methyl-(3-methyl-but-2-enyl)-amino]-pentanoic acid [4,4-bis-(4-fluoro-phenyl)-butyl]-amide monohydrochloride] | 0.52 µM | 77% |  |  |  | 48% @ 10 | 95% @ 10 |  | inhibition at 1 µM [3]: 23%; SCG K, % blockage at 1 μM [4]: 10% @ 1; Number of Mice Protected from Tonic Convulsions [6, 9]: 3/5 |
| CC(C)C[C@H](NC1CCCCC1)C(=O)NCCCC(c1ccc(F)cc1)c1ccc(F)cc1.Cl [Example 15, (S)-2-Cyclohexylamino-4-methyl-pentanoic acid [4,4-bis-(4-fluoro-phenyl)-butyl]-amide monohydrochloride] |  |  |  |  | 100% |  |  | 100% | inhibition at 1 µM [1]: 62%; inhibition at 10 µM [1]: 87%; Number of Mice Protected from Tonic Convulsions [6, 9]: 5/5; Number of Mice Protected from Tonic Convulsions ([6]; 10 mg/Kg iv, 45 min posttreatment): 2/5; Number of Mice Protected from Tonic Convulsions ([6]; 30 mg/Kg iv, 15 min posttreatment): 3/3; Number of Mice Protected from Tonic Convulsions ([6]; 30 mg/Kg iv, 45 min posttreatment): 5/5 |
